One data set has as its target T1, D4 receptor (Homo sapiens, UniProt P21917).
T1 sequence (P21917 1-419): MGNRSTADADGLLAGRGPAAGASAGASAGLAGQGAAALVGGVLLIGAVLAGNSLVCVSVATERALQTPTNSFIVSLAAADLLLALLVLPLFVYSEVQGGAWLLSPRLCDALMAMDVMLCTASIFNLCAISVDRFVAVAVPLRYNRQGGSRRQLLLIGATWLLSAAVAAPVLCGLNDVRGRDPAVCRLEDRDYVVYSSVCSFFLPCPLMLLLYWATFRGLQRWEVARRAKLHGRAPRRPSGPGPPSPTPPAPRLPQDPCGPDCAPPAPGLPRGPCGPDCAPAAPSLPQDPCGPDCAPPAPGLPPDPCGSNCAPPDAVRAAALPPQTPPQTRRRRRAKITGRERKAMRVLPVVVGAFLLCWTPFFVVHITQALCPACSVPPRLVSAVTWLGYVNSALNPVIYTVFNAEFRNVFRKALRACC
The data set is described as follows: receptor binding test, D4 receptor. The settings on record: for Ki: cloned receptor membrane, [125I]iodosulpride or [3H]YM-09151-2, 25° C., 1 hour; for Ratio D2/D4: ratio of Ki values.

Another data set has as its target T2, D2 receptor (Rattus norvegicus, UniProt P61169).
T2 construct: expressed in transfected cells
The data set is described as follows: receptor binding test, D2 receptor. The settings on record: cloned receptor membrane, [125I]iodosulpride or [3H]YM-09151-2, 25° C., 1 hour.

The target of the next data set is T3, D3 receptor (Rattus norvegicus, UniProt P19020).
T3 construct: expressed in transfected cells
Description: receptor binding test, D3 receptor. The settings on record: for Ki: cloned receptor membrane, [125I]iodosulpride or [3H]YM-09151-2, 25° C., 1 hour; for Ratio D2/D3: ratio of Ki values.

Data set [1] has as its system D2, D3 and D4 subtype receptors. The settings on record: existing antipsychotic agents; cited from earlier work.
A further data set concerns schizophrenia patients. The settings on record: cited from earlier work.
Data set [2] relates to apomorphine-induced climbing behavior. Description: antagonism test on apomorphine-induced climbing behavior. The format is in vivo. The settings on record: Mus musculus; SC administration, 15 minutes before apomorphine 2 mg/kg SC; ICR mice; measured during 30 minutes. The method, then:
2) Antagonism test on apomorphine-induced climbing behavior
Each test compound was administered to ICR mice (body weight, around 35 g; Japan SLC) by subcutaneous injection and, after 15 minutes, apomorphine (2 mg/kg) was subcutaneously injected.

SMILES strings stand for the structures. Read-outs that look alike come from different tables or passages of the source.

T2 sequence (P61169 whole entry): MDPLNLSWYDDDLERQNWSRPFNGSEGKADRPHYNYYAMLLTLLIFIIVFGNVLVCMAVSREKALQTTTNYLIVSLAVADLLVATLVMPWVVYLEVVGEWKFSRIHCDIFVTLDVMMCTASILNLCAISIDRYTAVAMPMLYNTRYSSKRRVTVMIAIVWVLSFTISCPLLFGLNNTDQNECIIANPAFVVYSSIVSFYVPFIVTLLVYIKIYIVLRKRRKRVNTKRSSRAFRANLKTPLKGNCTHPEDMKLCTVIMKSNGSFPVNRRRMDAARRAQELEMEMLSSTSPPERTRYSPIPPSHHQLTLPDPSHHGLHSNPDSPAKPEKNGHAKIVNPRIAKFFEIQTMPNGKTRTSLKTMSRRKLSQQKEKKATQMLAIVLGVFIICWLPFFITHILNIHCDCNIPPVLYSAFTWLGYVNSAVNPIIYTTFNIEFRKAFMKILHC
T3 sequence (P19020 whole entry): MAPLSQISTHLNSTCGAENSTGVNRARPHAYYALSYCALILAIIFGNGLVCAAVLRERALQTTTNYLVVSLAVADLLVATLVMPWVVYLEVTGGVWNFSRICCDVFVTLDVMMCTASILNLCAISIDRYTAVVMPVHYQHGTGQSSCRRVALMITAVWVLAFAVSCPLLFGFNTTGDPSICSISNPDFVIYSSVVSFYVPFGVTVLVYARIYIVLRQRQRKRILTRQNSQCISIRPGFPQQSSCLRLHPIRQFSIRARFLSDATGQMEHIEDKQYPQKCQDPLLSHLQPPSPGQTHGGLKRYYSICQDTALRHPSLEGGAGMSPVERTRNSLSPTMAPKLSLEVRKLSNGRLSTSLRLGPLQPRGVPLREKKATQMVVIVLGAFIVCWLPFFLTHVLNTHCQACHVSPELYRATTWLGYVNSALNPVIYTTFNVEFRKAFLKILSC
Description for D3 receptor: Using membrane samples of these cells, affinity of compounds for D2 receptor, D3 receptor and D4 receptor was examined by a receptor binding test. The receptor binding test was carried out in the following manner. A D2 receptor, D3 receptor or D4 receptor membrane sample and [^125 I] iodosulpride or [^3 H] YM-09151-2 (trade name, manufactured by Daiichi Pure Chemicals) were incubated at 25° C. for 1 hour in the presence of each compound to be tested. The reaction solution was filtered through a glass filter to measure the amount of radioisotope on the filter.

The Ki is a measure of affinity in units of concentration, obtained from inhibition or displacement. Low readings indicate tighter binding, high ones weaker binding. In the case of `COc1cc(OC)c([N+](=O)[O-])cc1C(=O)N[C@H]1CCN(C2C3CCCC2CCC3)C1` (stereo partly drawn) [Example 7, (S)-N-[1-(bicyclo[3.3.1]non-9-yl)-3-pyrrolidinyl]-2,4-dimethoxy-5-nitrobenzamide], at D4 receptor, the Ki stood at 1.1 nM and the “Ratio D2/D4” value worked out at 65. In addition, affinity at D2 receptor was put at a Ki of 72 nM. On D3 receptor, the Ki was found to be 1.5 nM and the “Ratio D2/D3” value was 48.
As for `O=C(CCCN1CCC(O)(c2ccc(Cl)cc2)CC1)c1ccc(F)cc1` [haloperidol], the “relative affinity for D2, D3 and/or D4 receptor” value in data set [1] was “high affinity for D2 receptor in comparison with D3 receptor and/or D4 receptor”. Besides, the “side effects such as extrapyramidal symptoms” value (“side effects such” below) in the data set with schizophrenia patients (clinical) was “highly frequent onset of side effects”.
As to `CCN1CCCC1CNC(=O)c1cc(S(N)(=O)=O)ccc1OC` (stereo not drawn) [sulpiride], the “relative affinity for D2, D3 and/or D4 receptor” value in data set [1] is on record as “its affinity for D3 and/or D4 receptor is similar to its affinity for D2 receptor”. For the same compound, in the data set on schizophrenia patients (clinical), the “effect on negative symptoms” value is on record as “certain degree of effects on negative symptoms”. Further, in the data set with schizophrenia patients (human, in vivo), the “side effects such” value is given as “relatively small side effects”.
One may read the ED50 as the midpoint of the dose-response relation. Take `CN1CCN(C2=Nc3cc(Cl)ccc3Nc3ccccc32)CC1` [Clozapine]: in data set [2], the 50% effect level (ED50) was put at a dose of 6.8 mg/kg. Further, in the data set on schizophrenia patients (clinical), the “effect on negative symptoms” value was “effective for patients mainly having negative symptoms” and the “side effects such” value is listed as “small extrapyramidal symptoms”.
For `CNc1cc(C(=O)N[C@H]2CCN(C3C4CCCC3CCC4)C2)c(OC)cc1OC` (stereo partly drawn) [Example 30, (S)-N-[1-(bicyclo[3.3.1]non-9-yl)-3-pyrrolidinyl]-2,4-dimethoxy-5-methylaminobenzamide hemifumarate], the values for the Ki at D4 receptor, at D2 receptor and at D3 receptor were 1.8 nM, 34 nM and 3.5 nM, respectively. Also, on D4 receptor, the “Ratio D2/D4” value was 19. The ED50 in data set [2] is 1.8 mg/kg. Also, on D3 receptor, the “Ratio D2/D3” value was determined as 9.7.
For the compound `COc1cc(OC)c(C(=O)N[C@H]2CCN(C3C4CCCC3CCC4)C2)cc1C#N` (stereo partly drawn) [Example 19, (S)-N-[1-(bicyclo[3.3.1]non-9-yl)-3-pyrrolidinyl]-5-cyano-2,4-dimethoxybenzamide], at D4 receptor, the inhibition constant (Ki) worked out at 2.6 nM and the “Ratio D2/D4” value was determined as 135. In addition, affinity on D2 receptor was put at a Ki of 350 nM. Besides, on D3 receptor, the affinity corresponds to a Ki of 4 nM and the “Ratio D2/D3” value is listed as 88.
